From publication PMC12664493, “Asparagine endopeptidase (AEP) inhibitor formulation via zein-based nanoparticle improves the therapeutic efficacy toward Alzheimer's disease” (Neurotherapeutics, 2025)
Where “and” joins values, the source holds several entries; their conditions need not be identical. Equal values may be shown once. Read-outs that look alike come from different tables or passages of the source.

How the values were obtained:
[1] = In vivo pharmacokinetics in CD-1 (ICR) mice, plasma and brain, LC-MS/MS; conditions: mouse
Text: (§1) Blood and brain tissues were collected at 0, 0.08, 0.25, 0.5, 1, 2, 4, and 8 h post-administration. For acute pharmacodynamic (PD) assessments, male and female 3xTg mice received oral doses of NP-11a-isopropyl at 7.5 mg/kg or 15 mg/kg, and blood and brain samples were collected 2 h after treatment.

P-glycoprotein (MDR1) = molecular target: T1, P-glycoprotein (MDR1) (Homo sapiens, UniProt P08183); assay: MDR1-MDCKII permeability assay (P-glycoprotein efflux); format: in vitro ADME; conditions: dog, MDCK-MDR1
T1 construct: expressed in transfected cells; host or cells: MDCKII

[2] = Stability in mouse liver microsomes; format: in vitro ADME; conditions: read-out: Stability-Microsomes T1/2
Solubility (pH 7.4, PBS) = format: physicochemical
3xTg mice = assay: Y-maze test in 3xTg mice; format: in vivo, mouse; conditions: 7.5 mg/kg P.O. daily, one month
Text: as §1
The Y-maze test was employed to evaluate spatial working memory and spontaneous alternation behavior, a measure of natural exploratory pattern integrity. The apparatus comprised three symmetrical opaque arms (A, B, C; 30 cm length × 8 cm width × 15 cm height) intersecting at 120° angles to form a Y-shaped configuration. Mice were habituated to the maze during a 5-min acclimatization period to minimize novelty-induced anxiety. Following habituation, spontaneous exploration was recorded for 8 min using an overhead camera, with all trials conducted under consistent low-light conditions to reduce environmental stress. EthoVision XT 12 software (Noldus, Wageningen, The Netherlands) quantified total arm entries, entry sequences, and alternation patterns (consecutive entries into three distinct arms without repetition). The maze was thoroughly cleaned with 70 % ethanol between trials to eliminate olfactory cues.

[3] = Plasma and brain concentrations after acute oral treatment of 3xTg mice; format: in vivo; conditions: both sexes, mouse
Text: Blood and brain tissues were collected at 0, 0.08, 0.25, 0.5, 1, 2, 4, and 8 h post-administration.

Aβ plaques = assay: Aβ PET (18F-AV45) in 3xTg mice after chronic treatment; format: in vivo, mouse; conditions: 7.5 mg/kg P.O. daily, one month
Text: as §1
Mice were maintained under isoflurane inhalation anesthesia during all procedures to ensure stable physiological conditions for radiochemical administration, imaging, and data processing. PET imaging was conducted using a high-resolution small-animal scanner (microPET; spatial resolution: 1.0 mm). Following intravenous administration of 10–15 MBq of ^18F-florbetapir (AV45) in 100 μL saline via the tail vein, 20-min volumetric brain emission scans were acquired. Image reconstruction was performed using ordered-subset expectation maximization (OSEM) to optimize spatial resolution and signal-to-noise ratios. For quantitative analysis, standardized uptake value ratios (SUVRs) were calculated by normalizing 18F-AV45 uptake in target regions to the cerebellar reference tissue. A predefined volumetric region of interest (VOI) template was applied to ensure consistent anatomical localization across subjects. SUVR data were statistically analyzed using Amide 1.0.4–1 (San Diego, CA, USA), with results reported for cortical and subcortical regions implicated in amyloid pathology.

[4] = male, CD-1 (ICR), plasma, iv, I.V. 2 mg/kg
[5] = male, CD-1 (ICR), plasma, po, P.O. 5 mg/kg

T1 sequence (P08183 whole entry): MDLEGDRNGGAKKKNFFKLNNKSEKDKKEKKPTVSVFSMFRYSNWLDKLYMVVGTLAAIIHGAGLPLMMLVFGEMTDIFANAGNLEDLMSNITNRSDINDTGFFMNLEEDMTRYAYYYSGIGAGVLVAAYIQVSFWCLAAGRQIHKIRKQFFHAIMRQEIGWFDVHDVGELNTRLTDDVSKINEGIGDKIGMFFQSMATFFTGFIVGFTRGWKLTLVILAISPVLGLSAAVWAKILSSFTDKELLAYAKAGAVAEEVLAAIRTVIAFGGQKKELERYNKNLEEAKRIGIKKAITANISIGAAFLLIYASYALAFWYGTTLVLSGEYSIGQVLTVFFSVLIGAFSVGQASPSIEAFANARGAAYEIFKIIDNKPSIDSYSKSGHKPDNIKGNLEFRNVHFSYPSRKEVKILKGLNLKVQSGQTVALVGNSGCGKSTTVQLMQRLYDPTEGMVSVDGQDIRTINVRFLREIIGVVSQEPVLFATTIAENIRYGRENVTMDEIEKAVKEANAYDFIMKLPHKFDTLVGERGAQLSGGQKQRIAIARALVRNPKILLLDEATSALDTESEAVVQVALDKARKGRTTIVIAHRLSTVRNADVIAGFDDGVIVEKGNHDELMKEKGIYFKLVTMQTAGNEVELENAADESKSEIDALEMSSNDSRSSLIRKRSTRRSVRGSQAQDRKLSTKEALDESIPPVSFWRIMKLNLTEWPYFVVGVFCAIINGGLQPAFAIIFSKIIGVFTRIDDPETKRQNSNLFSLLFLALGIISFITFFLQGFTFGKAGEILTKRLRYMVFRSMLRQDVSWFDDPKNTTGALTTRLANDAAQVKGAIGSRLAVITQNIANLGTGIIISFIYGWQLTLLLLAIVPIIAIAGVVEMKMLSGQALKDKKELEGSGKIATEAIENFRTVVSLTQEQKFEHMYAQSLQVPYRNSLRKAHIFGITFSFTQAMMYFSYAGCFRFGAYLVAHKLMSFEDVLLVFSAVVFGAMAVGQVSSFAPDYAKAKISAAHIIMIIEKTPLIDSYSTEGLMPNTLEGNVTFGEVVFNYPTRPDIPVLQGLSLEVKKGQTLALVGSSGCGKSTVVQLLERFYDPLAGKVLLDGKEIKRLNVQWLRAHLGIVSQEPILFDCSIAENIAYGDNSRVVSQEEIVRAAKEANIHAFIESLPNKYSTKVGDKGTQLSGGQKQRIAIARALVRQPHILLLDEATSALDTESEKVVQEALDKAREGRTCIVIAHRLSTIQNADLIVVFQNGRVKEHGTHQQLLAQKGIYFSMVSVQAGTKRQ

MRT last ([1]; male, CD-1 (ICR), brain, iv, I.V. 2 mg/kg, read-out: Brain MRT (0-t)): 143 min | Tmax ([1]; male, CD-1 (ICR), brain, iv, I.V. 2 mg/kg, read-out: Brain Tmax): 4.8 min | MRT last ([1]; male, CD-1 (ICR), brain, po, P.O. 5 mg/kg, read-out: Brain MRT (0-t)): 130 min | Tmax ([1]; male, CD-1 (ICR), brain, po, P.O. 5 mg/kg, read-out: Brain Tmax): 11.6 min | half-life ([1]; male, CD-1 (ICR), brain, iv, 2 mg/kg, I.V. 2 mg/kg, read-out: Brain t1/2 (converted)): ~120 min | half-life ([1]; male, CD-1 (ICR), brain, po, 5 mg/kg, P.O. 5 mg/kg, read-out: Brain t1/2 (converted)): 144 min | clearance ([1]; male, CD-1 (ICR), plasma, iv, 2 mg/kg, I.V. 2 mg/kg, read-out: Plasma CLz (converted)): 13.8 mL/min/kg | half-life ([1]; male, CD-1 (ICR), plasma, iv, 2 mg/kg, I.V. 2 mg/kg, read-out: Plasma t1/2 (converted)): 53.4 min | bioavailability ([1]; male, CD-1 (ICR), plasma, oral, 5 mg/kg, P.O. 5 mg/kg vs I.V. 2 mg/kg, read-out: F* (%) oral bioavailability): ~67.2% | half-life ([1]; male, CD-1 (ICR), plasma, po, 5 mg/kg, P.O. 5 mg/kg, read-out: Plasma t1/2 (converted)): ~43.8 min | AUC(0-t) [1, 4]: 2410 ng·h/mL | Cmax [1, 4]: 5160 ng/mL | MRT last ([1]; male, CD-1 (ICR), plasma, iv, I.V. 2 mg/kg, read-out: Plasma MRT (0-t)): 33.4 min | Tmax ([1]; male, CD-1 (ICR), plasma, iv, I.V. 2 mg/kg, read-out: Plasma Tmax): 4.8 min | AUC(0-t) [1, 5]: 4050 ng·h/mL | Cmax [1, 5]: 4770 ng/mL | MRT last ([1]; male, CD-1 (ICR), plasma, po, P.O. 5 mg/kg, read-out: Plasma MRT (0-t)): 50.9 min | Tmax ([1]; male, CD-1 (ICR), plasma, po, P.O. 5 mg/kg, read-out: Plasma Tmax): 8.22 min | Brain AUC (0-t) ([1]; I.V. 2 mg/kg, 2 mg/kg): approximately 921.71 ng/mL·h | Brain Cmax ([1]; I.V. 2 mg/kg, 2 mg/kg): 306.77 ng/mL | Brain AUC (0-t) ([1]; P.O. 5 mg/kg, 5 mg/kg): ~385.36 ng·h/mL and 385.358 ng·h/mL | Brain Cmax ([1]; P.O. 5 mg/kg, 5 mg/kg): 321.25 ng/mL and 321.248 ng/mL | Papp A→B (P-glycoprotein (MDR1); a-b, first value in brackets): 0.568 ×10⁻⁶ cm/s | Papp B→A (P-glycoprotein (MDR1); b-a, second value in brackets): 61.9 ×10⁻⁶ cm/s | half-life [2]: > 27.7 min | solubility (Solubility (pH 7.4, PBS); aqueous buffer, pH 7.4, read-out: Solubility (pH, media)): 2450 µg/mL | solubility (Solubility (pH 7.4, PBS); pH 7.4, aqueous buffer, pH7.4, read-out: Solubility (pH, media)): 6.25 mM | concentration at 2 h ([3]; brain, 7.5 mg/kg, 11a-isopropyl level in the brain, P.O. 7.5 mg/kg): 14.4 ng/mL | concentration at 2 h ([3]; brain, 7.5 mg/kg, P.O. 7.5 mg/kg, read-out: Concentration in brain, Brain Mean): 14.4 ng/g | concentration at 2 h ([3]; brain, 7.5 mg/kg, P.O. 7.5 mg/kg, read-out: Concentration in brain, Brain Sample (single animal)): 14.4 ng/g | concentration at 2 h ([3]; brain, 15 mg/kg, P.O. 15 mg/kg, read-out: Concentration in brain, Brain Sample (single animal)): 39.3 ng/g | concentration at 2 h ([3]; plasma, 7.5 mg/kg, P.O. 7.5 mg/kg, read-out: Concentration in plasma, Serum Mean): 74.9 ng/mL
Structure (SMILES): CC(C)Nc1nnc(Nc2cc(CO)c(N3CCOCC3)c3nonc23)s1 [11a-isopropyl]
Cognitive function in the Y maze (3xTg mice): significantly improved | Aβ PET (18F-AV45) SUVR (Aβ plaques): significantly decreasing the PET signals
